Here are results for two molecules from patent US11672753B2, “Composition for sebum control and pore minimizing” (AMOREPACIFIC CORPORATION, priority 2017, dated 2023).

The subject of experiment [1] is HaCaT keratinocytes and human sebaceous gland cells. The experiment can be described thus: Evaluation of sebum production inhibitory activity (Oil Red O staining of triglycerides). Type of experiment: cell-based. Conditions: retinol 0.3 ppm (comparison); one day. The source says: In order to efficiently evaluate the sebum production inhibitory activity of the plant extracts of the present disclosure, sebaceous gland cells and keratinocytes were used together, and an environment in vitro model similar to that of human sebaceous glands of the hair was used. HaCaT (ATCC, Va., USA), keratinocytes (Cellprogen, Calif., USA) cells and human sebaceous gland cells were inoculated into a 24-well culture plate at 3.75×10^4 cells and 6.0×10^4 cells, respectively. After inoculation, it was allowed to stand for one day so that the cells adhered to the bottom of the culture plate. At this time, 10% of fetal bovine serum (JRH Bioscience, Tokyo, Japan), […] of streptomycin (the above two reagents, GIBCO, Milan, Italy) were added to DMEM medium (Invitrogen, Carlsbad, Calif.) and used as a medium. After one day, the cells were treated with 50 μM of linoleic acid, 50 μM of arachidonic acid, or 10 nM of dihydrotestosterone, as a stimulating source for causing seborrheic skin inflammation. […] After one day, the amount of triglycerides produced in the cells was measured using Oil Red O staining. […] Then, the […], and the absorbance was measured at 520 nm using a spectrophotometer for quantification. […]

Experiment [2] relates to procollagen-I in human fibroblasts. The experiment can be described thus: Evaluation of procollagen-I production activity (ELISA of culture solution). The conditions noted are these: TGF-β1 0.005 ppm (comparison); two days after treatment. Type of experiment: cell-based. The text has this:
An enzyme-linked immunosorbent assay (ELISA) method was used to confirm the amount of procollagen-I produced by the plant extracts of the present disclosure (Youngren et al., 1999). Since procollagen-I is a substance secreted out of cells, the culture solution of the fibroblasts treated with the samples was collected and applied to the experiment as a measurement method for confirming the expression change using the cell culture solution.
Specifically, human fibroblasts (Cell biologics, IL, USA) were inoculated into a 24-well culture plate at 2.5×10^4 cells. After inoculation, it was allowed to stand for one day so that the cells adhered to the bottom of the culture plate. At this time, 2% of low serum growth supplement (LSGS; Thermo Fisher, Mass., USA), […] of streptomycin (the above two reagents, GIBCO, Milan, Italy) were added to 106 medium (Thermo Fisher, Mass., USA) and used as a medium. Each plant extract obtained in Reference Examples 1 to 7 in the experimental group was dissolved in DMSO to make a 1% solution, and then diluted in DMEM medium, and treated to a final concentration of 50 ppm. In addition, for comparison, TGF-β1, known to have the ability to produce procollagen-I, was treated at a concentration of 0.005 ppm instead of the plant extracts. Two days after the treatment with the samples, the production of procollagen-I was measured. […]
Background: In an ELISA, binding on a coated surface is turned into a signal by an enzyme label.

As for `CC1=C(/C=C/C(C)=C/C=C/C(C)=C/CO)C(C)(C)CCC1` [Retinol], the “Inhibition rate of sebum production (%)” value in experiment [1] was found to be 42.1%. Regarding “TGF-β1: known to have the ability to produce procollagen-I; comparison”, in experiment [2], the “Production rate of Procollagen-I (%)” value turned out to be 52.1%.
